Laboratory results taken from patent US20170189474A1, “ANTIFUNGAL THERAPY FOR THE TREATMENT OF HIRSCHSPRUNG-ASSOCIATED ENTEROCOLITIS” (Cedars-Sinai Medical Center, priority 2014, published 2017).

Tested on: 129SvEdnrb−/− (KO) mice with colonic aganglionosis
Assay: Histological enterocolitis scoring after medicated water treatment in murine model of HAEC
Assay type: in vivo, mouse
Conditions: Ednrb−/− (KO) mice, antifungal only in drinking water, vs untreated KO; trend, did not reach significance
Description: Regular water treated KO mice (KO_H2O) and their wild type littermates (WT_H2O) were used as untreated control. […] The total enterocolitis score of each treatment was compared with KO_H2O by using unpaired two-tailed Student's t-test. Results are shown as Mean±SEM, *P<0.05; **P<0.01. We test antibiotic and antifungal agents and their combinations on the 129sv/Ednrb mouse strain shown to be a model of HAEC. The experimental groups and protocol are described below: Medicated water which contains enrofloxacin (Baytril), metronidazole, vancomycin, natamycin ([…]), fluconazole, and/or […] (Isavuconazole sulfate) are administered to pregnant mice from the time that the pregnancy is noted, through weaning of the pups. In other words, the administration of medicated water to moms are stopped after weaning, and then continued with the weaned pups. Six groups of animals (129sv/Ednrb-null mouse strain, n=5-8 per group) with different treatment are described as below. The dosage was calculated by the concentration of antibiotic and antifungal agents and assuming a mouse taking 5 ml water per day based on published data. Group 1. […] Significant changes in makeup between the samples will be verified by quantitative PCR. […]

SMILES | reduction of mean enterocolitis score
C[C@@H]1C/C=C/C=C/C=C/C=C/[C@H](O[C@@H]2O[C@H](C)[C@@H](O)[C@H](N)[C@@H]2O)C[C@@H]2O[C@](O)(C[C@@H](O)C[C@H]3O[C@@H]3/C=C/C(=O)O1)C[C@H](O)[C@H]2C(=O)O [AFX1, natamycin] | 42%
OC(Cn1cncn1)(Cn1cncn1)c1ccc(F)cc1F [AFX2, fluconazole] | 34%
